pIC50: −log10 of the molar value.
The compounds below were run on Entamoeba histolytica (assay: Antiamoebic activity against Entamoeba histolytica HM1:IMSS by microdilution method).
Assay type: functional, organism-based

pIC50 | Structure (SMILES)
5.22 | S=C(N/N=C\c1c[nH]c2ccccc12)NC1CCCCCCC1
5.08 | CC1CCN(C(=S)N/N=C\c2c[nH]c3ccccc23)CC1
5.97 | S=C(N/N=C\c1c[nH]c2ccccc12)NC1C2CC3CC(C2)CC1C3 (configuration not stated)
4.83 | S=C(N/N=C\c1c[nH]c2ccccc12)N1CCCC1
5.51 | S=C(N/N=C\c1c[nH]c2ccccc12)N1CCN(c2ccccc2)CC1
4.86 | S=C(N/N=C\c1c[nH]c2ccccc12)NC1CCCC1
5.77 | S=C(N/N=C\c1c[nH]c2ccccc12)N1CCCc2ccccc21

Reference: ChEMBL document CHEMBL1148004, “Synthesis, characterization and antiamoebic activity of new indole-3-carboxaldehyde thiosemicarbazones and their Pd(II) complexes” (Eur J Med Chem, 2007)
